Measured values: PubChem BioAssay AID2202555 (NIEHS Division of Translational Toxicology (DTT))
Results filed as inconclusive are left out. The source made the active and inactive calls. How the calls were made is not given here.

Test system: rat and mouse 2-year carcinogenicity bioassay, tumor evidence
Experiment: Consolidated carcinogenicity assay summary data
Conditions: Route (rodents): Dosed feed
Text: Cancer Evaluation Criteria
The National Toxicology Program describes the results of individual experiments on a chemical agent and notes the strength of the evidence for conclusions regarding each study. […] Other organizations, such as the International Agency for Research on Cancer, assign a strength of evidence for conclusions based on an examination of all available evidence, including animal studies such as those conducted by the NTP, epidemiologic studies, and estimates of exposure. Thus, the actual determination of risk to humans from chemicals found to be carcinogenic in laboratory animals requires a wider analysis that extends beyond the purview of these studies.
Five categories of evidence of carcinogenic activity are used in the Technical Report series to summarize the strength of evidence observed in each experiment: two categories for positive results (clear evidence and some evidence); one category for uncertain findings (equivocal evidence); one category for no observable effects (no evidence); and one category for experiments that cannot be evaluated because of major flaws (inadequate study). These categories of interpretative conclusions were first adopted in June 1983 and then revised on March 1986 for use in the Technical Report series to incorporate more specifically the concept of actual weight of evidence of carcinogenic activity. For each separate experiment (male rats, female rats, male mice, female mice), one of the following five categories is selected to describe the findings. These categories refer to the strength of the experimental evidence and not to potency or mechanism.
For studies showing multiple chemical-related neoplastic effects that if considered individually would be assigned to different levels of evidence categories, the following convention has been adopted to convey completely the study results. In a study with clear evidence of carcinogenic activity at some tissue sites, other responses that alone might be deemed some evidence are indicated as "were also related" to chemical exposure. In studies with clear or some evidence of carcinogenic activity, other responses that alone might be termed equivocal evidence are indicated as "may have been" related to chemical exposure.
When a conclusion statement for a particular experiment is selected, consideration must be given to key factors that would extend the actual boundary of an individual category of evidence. Such consideration should allow for incorporation of scientific experience and current understanding of long-term carcinogenesis studies in laboratory animals, especially for those evaluations that may be on the borderline between two adjacent levels. These considerations should include:
- adequacy of the experimental design and conduct;
- occurrence of common versus uncommon neoplasia;
- progression (or lack thereof) from benign to malignant neoplasia as well as from preneoplastic to neoplastic lesions;
- some benign neoplasms have the capacity to regress but others (of the same morphologic type) progress. At present, it is impossible to identify the difference. Therefore, where progression is known to be a possibility, the most prudent course is to assume that benign neoplasms of those types have the potential to become malignant;
- combining benign and malignant tumor incidences known or thought to represent stages of progression in the same organ or tissue;
- latency in tumor induction;
- multiplicity in site -specific neoplasia;
- supporting information from proliferative lesions (hyperplasia) in the same site of neoplasia or in other experiments (same lesion in another sex or species);
- presence or absence of dose relationships;
- statistical significance of the observed tumor increase;
- concurrent control tumor incidence as well as the historical control rate and variability for a specific neoplasm;
- survival-adjusted analyses and false positive or false negative concerns;
- structure-activity correlations; and
[…]

SMILES	carcinogen call
OC(c1ccc(Cl)cc1)(c1ccc(Cl)cc1)C(Cl)(Cl)Cl	active; no evidence
Cc1cc(C)c(N)cc1C	active; clear evidence
Nc1cc(S(=O)(=O)O)cc2cc(S(=O)(=O)O)c(N=Nc3ccc(-c4ccc(N=Nc5c(S(=O)(=O)O)cc6cc(S(=O)(=O)O)cc(N)c6c5O)cc4)cc3)c(O)c12	active; clear evidence
CNC(=S)N(C)C	active; no evidence
[O-]/[N+](=N\O)c1ccccc1	active; clear evidence
COC(=O)[C@H]1[C@H]2C[C@@H]3c4[nH]c5cc(OC)ccc5c4CCN3C[C@H]2C[C@@H](OC(=O)c2cc(OC)c(OC)c(OC)c2)[C@@H]1OC	active; clear evidence
CN(C)c1ccc(C(=O)c2ccc(N(C)C)cc2)cc1	active; clear evidence
Nc1cc(Cl)cc(C(=O)O)c1Cl	active; no evidence
Nc1ccc(N=Nc2ccc(-c3ccc(N=Nc4c(S(=O)(=O)O)cc5cc(S(=O)(=O)O)c(N=Nc6ccccc6)c(O)c5c4N)cc3)cc2)c(N)c1	active; clear evidence
Cc1cc(N=Nc2c(O)ccc3ccccc23)c(S(=O)(=O)O)cc1Cl	active; clear evidence
CN(C)c1ccc(C(c2ccccc2)c2ccc(N(C)C)cc2)cc1	active; equivocal evidence
O=C(O)C1C(C(=O)O)C2(Cl)C(Cl)=C(Cl)C1(Cl)C2(Cl)Cl (configuration not stated)	active; clear evidence
Cc1ncc[nH]1	active; some evidence

Same assay, conditions: Route (rodents): Gavage

SMILES	carcinogen call
CC(C)=CCl	active; clear evidence
OC(O)C(Cl)(Cl)Cl	active
O=c1ccc2ccccc2o1	active; some evidence
Clc1ccc(N=Nc2ccc(Cl)c(Cl)c2)cc1Cl	active; clear evidence
C[C@]12C/C(=C/O)C(=O)C[C@@H]1CC[C@@H]1[C@@H]2CC[C@@]2(C)[C@H]1CC[C@]2(C)O	active; equivocal evidence
CC1(C)COC1=O	active; clear evidence
C=CC(=O)NCO	active; no evidence
CC(C)CCC[C@@H](C)[C@H]1CC[C@H]2[C@@H]3CC=C4C[C@@H](OC(=O)Cc5ccc(N(CCCl)CCCl)cc5)CC[C@]4(C)[C@H]3CC[C@]12C	active; no evidence
CC1=CC(=O)CC(C)(C)C1	active; some evidence
Clc1ccc(-c2cc(Cl)c(Cl)c(Cl)c2)cc1Cl	active
C[C@]12CCC(=O)C=C1CC[C@@H]1[C@@H]2CC[C@]2(C)C(=O)CC[C@@H]12	active; equivocal evidence
CCCCC(CC)COP(=O)(OCC(CC)CCCC)OCC(CC)CCCC (configuration not stated)	active; equivocal evidence
CCCN(CCC)S(=O)(=O)c1ccc(C(=O)O)cc1	active; no evidence
O=C/C=C/O	active; clear evidence
ClC=C(Cl)Cl	active; no evidence

Same assay, conditions: Route (rodents): Gavage; Second Route: Administration in utero

SMILES	carcinogen call
Cc1cn([C@H]2C[C@H](N=[N+]=[N-])[C@@H](CO)O2)c(=O)[nH]c1=O	active

Same assay, conditions: Route (rodents): Inhalation

SMILES	carcinogen call
c1ccc2c(c1)CCCC2	active; some evidence
CCBr	active; some evidence
[O]=[Mo](=[O])=[O]	active; equivocal evidence
CC(O)COC(C)(C)C (configuration not stated)	active; equivocal evidence
O.O.O.O.O.O.O.O=S(=O)([O-])[O-].[Co+2]	active; some evidence
CCCl	active; equivocal evidence
CCCBr	active; some evidence
FC(F)(F)c1ccc(Cl)cc1	active; some evidence
C=CCOCC1CO1 (configuration not stated)	active; equivocal evidence

Same assay, conditions: Route (rodents): Interperitoneal

SMILES	carcinogen call
COc1cc2c(c3c1c(=O)c1ccccc1n3C)C=CC(C)(C)O2	active; clear evidence
Nc1ncn([C@@H]2O[C@H](CO)[C@@H](O)[C@H]2O)c(=O)n1	active; inadequate study
O=P1(NCCCl)OCCCN1CCCl (configuration not stated)	active; no evidence

Same assay, conditions: Route (rodents): Topical

SMILES	carcinogen call
OCCN(CCO)CCO	active; equivocal evidence
